Source: patent publication US10874107B2, “β-lactamase targeted photosensitizer for pesticide and pest detection” (The General Hospital Corporation, priority 2012, dated 2020)

Key:
[1] = target: β-lactamase from Enterobacter cloacae (Enterobacter cloacae, UniProt P05364); test: Enzyme-mediated cleavage of the prodrug (fluorescence emission); assay type: biochemical
Excerpt: FIGS. 6A and B show plots of (a) fluorescence emission vs. wavelength and (b) fluorescence emission vs. time for the Cephalosporanic acid-photosensitizer prodrug, depicting the enzyme-mediated cleavage of the prodrug.
The prodrug obtained was further studied for release of photosensitizer in presence of β-lactamase from Enterobacter cloacae. For the fluorescence emission study of the prodrug, the solvent employed was water, and the excitation wavelength 635 nm in the presence of beta-lactamase enzyme (from Enterobacter cloacae). Time-dependent fluorescence emission was also measured for photosensitizer release from the prodrug in the presence of enzyme. […] Thus, the prodrug was ynthesized and characterized.

[2] = UV-visible and fluorescence emission spectra of prodrug vs. free photosensitizer (TBO); assay type: physicochemical

β-lactamase from Enterobacter cloacae, sequence (P05364 21-381): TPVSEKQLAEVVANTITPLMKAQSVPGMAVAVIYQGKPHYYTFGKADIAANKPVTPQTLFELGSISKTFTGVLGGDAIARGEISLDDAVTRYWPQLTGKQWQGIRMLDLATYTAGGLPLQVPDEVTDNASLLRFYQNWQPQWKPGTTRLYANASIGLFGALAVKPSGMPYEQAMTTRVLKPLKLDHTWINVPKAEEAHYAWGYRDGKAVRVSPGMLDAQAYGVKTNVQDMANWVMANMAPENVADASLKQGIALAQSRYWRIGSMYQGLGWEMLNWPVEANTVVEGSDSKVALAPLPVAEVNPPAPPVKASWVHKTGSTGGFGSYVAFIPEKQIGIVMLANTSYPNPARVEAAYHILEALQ

With “Cephalosporanic Acid-Toluidine blueO Prodrug” the lactamase-specific activity [1] was “demonstrated lactamase-specific activity”, the “increase in excited stated properties (fluorescence emission) on incubation with enzyme” value ([1]; water, excitation 635 nm, within minutes of incubation with β-lactamase) was about 5 fold and the “quenching of the photosensitizer in the conjugated form” value [2] was “quantitative quenching”. For the same substance, the “reduction in fluorescence emission maxima (prodrug vs. TBO)” value ([2]; 635 nm excitation, ethanol) was about 8 fold and the “shift in the absorption spectra (UV-visible)” value ([2]; ethanol, 2.0×10^−5 M, vs. TBO) was “blue shift”.
